From ChEMBL document CHEMBL5728406, “Thioether triazolopyridine and triazolopyrimidine inhibitors of myeloperoxidase” (2021)

biological target: T1, Myeloperoxidase (Homo sapiens, UniProt P05164); assay: MPO Peroxidation (Amplex Red) Assay: MPO peroxidation activity was measured in 100 mM KPi (pH 7.4) by utilizing the non-fluorescent reagent Amplex Red (Invitrogen catalog #A12222) which can be oxidized to the highly fluorescent resorufin. Amplex Red is oxidized by the peroxidase action of MPO to resorufin. […] Enzyme and compound were preincubated for ten minutes at rt.After the ten minute preincubation, 25 μL of an Amplex Red mixture containing 200 μM Amplex Red and 10 mM H2O2 was added to the plate.
T1 sequence (P05164 whole entry): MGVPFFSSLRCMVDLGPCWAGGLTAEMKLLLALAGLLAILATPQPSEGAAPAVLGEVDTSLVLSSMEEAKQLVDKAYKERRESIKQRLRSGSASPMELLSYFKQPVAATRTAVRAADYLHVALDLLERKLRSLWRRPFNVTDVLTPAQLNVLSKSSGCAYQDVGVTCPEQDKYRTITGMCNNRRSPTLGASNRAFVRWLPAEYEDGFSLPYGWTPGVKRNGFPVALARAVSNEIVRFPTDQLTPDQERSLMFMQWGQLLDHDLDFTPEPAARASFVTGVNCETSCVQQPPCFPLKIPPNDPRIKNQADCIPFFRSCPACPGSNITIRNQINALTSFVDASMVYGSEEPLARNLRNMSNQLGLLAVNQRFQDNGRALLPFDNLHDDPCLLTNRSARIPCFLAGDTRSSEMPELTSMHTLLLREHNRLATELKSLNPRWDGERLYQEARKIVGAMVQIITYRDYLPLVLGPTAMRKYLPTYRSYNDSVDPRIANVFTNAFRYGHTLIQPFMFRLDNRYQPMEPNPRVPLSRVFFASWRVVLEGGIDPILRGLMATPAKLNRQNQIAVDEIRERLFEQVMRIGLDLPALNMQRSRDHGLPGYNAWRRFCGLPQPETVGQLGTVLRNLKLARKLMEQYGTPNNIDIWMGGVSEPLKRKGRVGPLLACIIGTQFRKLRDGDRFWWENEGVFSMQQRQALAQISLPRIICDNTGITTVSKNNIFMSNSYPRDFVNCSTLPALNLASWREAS

IC50 [nM] | SMILES
30 | Cc1nn(C)c(C)c1CSc1cc(N)nc2[nH]nnc12

biological target: T1, Myeloperoxidase; assay: MPO Chlorination (APF) Assay : MPO chlorination activity was measured in 100 mM KPi (pH 7.4) by utilizing the non-fluorescent reagent Aminophenyl fluorescein (APF, Invitrogen catalog #A36003). APF is cleaved by (—OCl) to yield the fluorescent compound fluorescein. […] Enzyme, inhibitor, and chloride were preincubated for ten minutes at rt.After the ten minute preincubation, 25 μL of an APF mixture containing […], 120 mM NaCl and 10 μM H2O2 was added to the plate using the internal dispensing system of a Hammatsu FDSS 6000. […] IC50 values for inhibitors were calculated by taking the slope of the linear portion of the kinetic measurement (20 seconds to ˜80-120 secs).IC50 values were calculated by determining the slope of the linear portion of the kinetic trace (180-540 secs), and using that calculated slope to determine % inhibition occurring at each concentration of inhibitor using the following equation:Y = A + B - A 1 + ( C / x ) Dwhere A=minimal Y value (activity level of inhibited sample), B=maximal Y value (activity level of uninhibited sample), C=Log IC50, D=Hill Slope, x=concentration of inhibitor.

SMILES | IC50 [nM]
N#Cc1cccc(Br)c1CSc1cc(N)nc2[nH]nnc12 | < 60
Cn1nc(C(F)(F)F)c(CSc2cc(N)nc3[nH]nnc23)c1F | < 60
Cc1nn(C)c(C)c1CSc1cc(N)nc2[nH]nnc12 | 80
Cn1ncc(CSc2cc(N)nc3[nH]nnc23)c1C(F)(F)F | < 60
N#Cc1c(F)cccc1CSc1cc(N)nc2[nH]nnc12 | < 60
Cn1cc(CSc2cc(N)nc3[nH]nnc23)c(C(F)(F)F)n1 | < 60
CCc1nn(C)c(Cl)c1CSc1cc(N)nc2[nH]nnc12 | < 60
N#Cc1ccc(Cl)c(CSc2cc(N)nc3[nH]nnc23)c1 | < 60
